Data from US20060003023A1, “Microbicidal composition” (priority 2004, published 2006).
Values joined by “and” are separate entries in the source; they are usually repeats but may differ in a detail not shown here. Equal entries are not always repeated.

Tests used:
[1] = test system: Pseudomonas aeruginosa (ATCC 15442); assay: High resolution MBC combination test (minimum biocidal concentration), recovery in Trypticase Soy Broth plus thioglycolate
[2] = test system: Pseudomonas aeruginosa (ATCC 15442); assay: High resolution MIC combination test (minimum inhibitory concentration), 96-well microtiter plate, mineral salts medium with 2% glucose
Text: When the sum of Qa/QA and Qb/QB is greater than one, antagonism is indicated. […] The lower the SI, the greater the synergy shown by that particular mixture. The minimum inhibitory concentration (MIC) of a microbicide is the lowest concentration tested under a specific set of conditions that prevents the growth of added microorganisms.
The tests were set up with 96-well microtiter plate using the Biomek™ 2000 Workstation employing a high resolution MIC/MBC combination test method, which provides multiple combinations of two biocides in one test plate. […] Samples (10 μl) taken from each well of the MIC plate were transferred to fresh media in the MBC plates and observed for the presence of surviving (viable) microorganisms over time. […] The synergistic ratio range of the biocide combination is a reflection of the total activity of both inhibition (MIC) and killing MBC).
Each well received 20 μl of a 24-hour pure culture suspension of Pseudomonas aeruginosa (ATCC 15442) at a final density of 106 colony forming units (CFU) per ml. Cell density was adjusted to an optical density of 0.09 at 660 nm using a spectrophotometer.
Tests were set up in duplicate with different starting concentrations of biocides to increase the number of possible combinations displaying antimicrobial activity.
All biocide results are reported on an active ingredient basis in ppm (parts per million).

Q: With `CCCCCCCCn1sc(Cl)c(Cl)c1=O` [DCOIT, 4,5-Dichloro-2-n-octyl-4-isothiazolin-3-one] as the compound, how does the “A alone (MBC)” value ([1]; Day 1, MBC 1) read?
A: The value was 10.00 ppm active ingredient.

Q: What about the “A alone (MBC)” value ([1]; Day 1, MBC 2) of the same compound?
A: Its value is 10.00 ppm active ingredient.

Q: What about the “A alone (MIC)” value ([2]; Day 1, MIC 1) of the same compound?
A: The value was 2.50 ppm active ingredient.

Q: What about the “A alone (MIC)” value ([2]; Day 1, MIC 2) of the same compound?
A: The value was 2.50 ppm active ingredient.

Q: What about the “A alone (MIC)” value ([2]; Day 3, MIC 1) of the same compound?
A: The value was 5.00 ppm active ingredient and 10.00 ppm active ingredient.

Q: What about the “A alone (MIC)” value ([2]; Day 3, MIC 2) of the same compound?
A: The value was 10.00 ppm active ingredient and 5.00 ppm active ingredient.

Q: And the “A alone (MIC)” value ([2]; Day 5, MIC 1)?
A: Its value is 5.00 ppm active ingredient.

Q: What about the “A alone (MIC)” value ([2]; Day 5, MIC 2) of the same compound?
A: Its value is 10.00 ppm active ingredient.

Q: Which results are given for `N#CC(Br)(Br)C(N)=O` [DBNPA, 2,2-Dibromo-nitrilo-propionamide]?
A: A alone ([1]; DBNPA alone, ppm active ingredient, day 1, MBC 1): 12.50 ppm; a/A ([1]; DBNPA comb./alone, day 1, MBC 1): 0.50; a comb. ([1]; DBNPA combined with stabilized hypochlorite and bromide, ppm active ingredient, day 1, MBC 1): 6.25 ppm; A alone ([2]; DBNPA alone, ppm active ingredient, day 1, MIC 1): 6.25 ppm; A alone ([2]; DBNPA alone, ppm active ingredient, day 1, MIC 2): 6.25 ppm; A alone ([2]; DBNPA alone, ppm active ingredient, day 5, MIC 1): 12.50 ppm and 6.25 ppm; A alone ([2]; DBNPA alone, ppm active ingredient, day 5, MIC 2): 12.50 ppm; a/A ([2]; DBNPA comb./alone, day 5, MIC 1): 0.32 and 0.50; a/A ([2]; DBNPA comb./alone, day 5, MIC 2): 0.32; a comb. ([2]; DBNPA combined with stabilized hypochlorite and bromide, ppm active ingredient, day 1, MIC 1): 1.56 ppm and 0.78 ppm; a comb. ([2]; DBNPA combined with stabilized hypochlorite and bromide, ppm active ingredient, day 5, MIC 1): 4.00 ppm and 3.13 ppm; a comb. ([2]; DBNPA combined with stabilized hypochlorite and bromide, ppm active ingredient, day 5, MIC 2): 4.00 ppm

Q: What does the source list for `O=CCCCC=O` [GLUT, Pentane-1,5-dial]?
A: A alone ([1]; glutaraldehyde alone, ppm active ingredient, day 1, MBC 1): 25.00 ppm; A alone ([1]; glutaraldehyde alone, ppm active ingredient, day 1, MBC 2): 25.00 ppm; A alone ([1]; glutaraldehyde alone, ppm active ingredient, day 3, MBC 2): 50.00 ppm; a/A ([1]; glutaraldehyde comb./alone, day 1, MBC 1): 0.50; a/A ([1]; glutaraldehyde comb./alone, day 1, MBC 2): 0.50; a/A ([1]; glutaraldehyde comb./alone, day 3, MBC 2): 0.50; a comb. ([1]; glutaraldehyde combined with stabilized hypochlorite and bromide, ppm active ingredient, day 1, MBC 1): 12.50 ppm; a comb. ([1]; glutaraldehyde combined with stabilized hypochlorite and bromide, ppm active ingredient, day 1, MBC 2): 12.50 ppm; a comb. ([1]; glutaraldehyde combined with stabilized hypochlorite and bromide, ppm active ingredient, day 3, MBC 2): 25.00 ppm; A alone ([2]; glutaraldehyde alone, ppm active ingredient, day 1, MIC 1): 25.00 ppm; A alone ([2]; glutaraldehyde alone, ppm active ingredient, day 1, MIC 2): 25.00 ppm; A alone ([2]; glutaraldehyde alone, ppm active ingredient, day 3, MIC 1): 25.00 ppm; A alone ([2]; glutaraldehyde alone, ppm active ingredient, day 3, MIC 2): 50.00 ppm; A alone ([2]; glutaraldehyde alone, ppm active ingredient, day 5, MIC 1): 25.00 ppm; A alone ([2]; glutaraldehyde alone, ppm active ingredient, day 5, MIC 2): 50.00 ppm; a/A ([2]; glutaraldehyde comb./alone, day 1, MIC 1): 0.50; a/A ([2]; glutaraldehyde comb./alone, day 1, MIC 2): 0.50; a/A ([2]; glutaraldehyde comb./alone, day 3, MIC 1): 0.50; a/A ([2]; glutaraldehyde comb./alone, day 3, MIC 2): 0.50; a/A ([2]; glutaraldehyde comb./alone, day 5, MIC 1): 0.50; a/A ([2]; glutaraldehyde comb./alone, day 5, MIC 2): 0.50; a comb. ([2]; glutaraldehyde combined with stabilized hypochlorite and bromide, ppm active ingredient, day 1, MIC 1): 12.50 ppm; a comb. ([2]; glutaraldehyde combined with stabilized hypochlorite and bromide, ppm active ingredient, day 1, MIC 2): 12.50 ppm; a comb. ([2]; glutaraldehyde combined with stabilized hypochlorite and bromide, ppm active ingredient, day 3, MIC 1): 12.50 ppm; a comb. ([2]; glutaraldehyde combined with stabilized hypochlorite and bromide, ppm active ingredient, day 3, MIC 2): 25.00 ppm; a comb. ([2]; glutaraldehyde combined with stabilized hypochlorite and bromide, ppm active ingredient, day 5, MIC 1): 12.50 ppm; a comb. ([2]; glutaraldehyde combined with stabilized hypochlorite and bromide, ppm active ingredient, day 5, MIC 2): 25.00 ppm

Q: For “Alkyl*dimethyl benzyl ammonium chloride [ADBAC]”, which “A alone (MBC)” value ([1]; Day 3, MBC 1) is on record?
A: Its value is 50.00 ppm active ingredient.

Q: And the “A alone (MBC)” value ([1]; Day 3, MBC 2)?
A: The value was 50.00 ppm active ingredient.

Q: And the “A alone (MIC)” value ([2]; Day 1, MIC 1)?
A: The value was 12.50 ppm active ingredient.

Q: What about the “A alone (MIC)” value ([2]; Day 3, MIC 2) of the same compound?
A: The value was 50.00 ppm active ingredient.

Q: Which A alone ([1]; MBC of BCDMH alone, Day 1, Expt MBC 1) does the source give for `CC1(C)C(=O)N(Br)C(=O)N1Cl` [BCDMH, 3-Bromo-1-chloro-5,5-dimethylhydantoin] here?
A: Its A alone is 6.25 ppm total oxidant.

Q: What about the A alone ([1]; MBC of BCDMH alone, Day 1, Expt MBC 2) of the same compound?
A: Its A alone is 6.25 ppm total oxidant.

Q: What about the A alone ([1]; MBC of BCDMH alone, Day 3, Expt MBC 2) of the same compound?
A: Its A alone is 6.25 ppm total oxidant.

Q: What about the A alone ([2]; MIC of BCDMH alone, Day 1, Expt MIC 1) of the same compound?
A: Its A alone is 3.13 ppm total oxidant.

Q: What about the A alone ([2]; MIC of BCDMH alone, Day 1, Expt MIC 2) of the same compound?
A: Its A alone is 3.13 ppm total oxidant.

Q: And the A alone ([2]; MIC of BCDMH alone, Day 3, Expt MIC 1)?
A: The A alone was 6.25 ppm total oxidant.

Q: And the A alone ([2]; MIC of BCDMH alone, Day 3, Expt MIC 2)?
A: The A alone was 6.25 ppm total oxidant.

Q: And the A alone ([2]; MIC of BCDMH alone, Day 5, Expt MIC 1)?
A: Its A alone is 6.25 ppm total oxidant.

Q: And the A alone ([2]; MIC of BCDMH alone, Day 5, Expt MIC 2)?
A: Its A alone is 6.25 ppm total oxidant.

Q: Which results are given for `O=c1[nH]sc2ccccc12` [BIT, 1,2-Benzisothiazolin-3-one]?
A: A alone ([1]; BIT alone, ppm active ingredient, day 1, MBC 2): 100.00 ppm; a/A ([1]; BIT comb./alone, day 1, MBC 2): 0.50; a comb. ([1]; BIT combined with stabilized hypochlorite and bromide, ppm active ingredient, day 1, MBC 2): 50.00 ppm; A alone [2]: 25.00 ppm; A alone ([2]; BIT alone, ppm active ingredient, day 1, MIC 2): 50.00 ppm; A alone ([2]; BIT alone, ppm active ingredient, day 3, MIC 2): 100.00 ppm; a/A ([2]; BIT comb./alone, day 1, MIC 1): 0.01; a/A ([2]; BIT comb./alone, day 1, MIC 2): 0.50 and 0.25; a/A ([2]; BIT comb./alone, day 3, MIC 2): 0.50; a comb. ([2]; BIT combined with stabilized hypochlorite and bromide, ppm active ingredient, day 1, MIC 2): 25.00 ppm and 12.50 ppm; a comb. ([2]; BIT combined with stabilized hypochlorite and bromide, ppm active ingredient, day 3, MIC 2): 50.00 ppm
